Assay results as given in patent US12576150B2, “CD4+ T cells expressing IL-10 and chimeric antigen receptors and uses thereof” (TR1X, INC., priority 2021, dated 2026).

System: NLPR3 inflammasome, LPS activated monocytes
Assay: IL-1β production by LPS activated monocytes
Format: cell-based, human
Conditions: with anti-IL-10 receptor antibody
Method: CD14^+ monocytes were isolated from PBMC using a pan monocyte isolation kit (Miltenyi Biotec, Bergisch Gladbach, Germany) and plated in 96 flat microtiter wells at 2×10^5/200 μL per well and cultured in the presence of LPS. The cells were cultured further in the presence of Z-YVADfmk (20 μM), MMC950 (10 μM), IL-10 (10 ng/ml) or various concentrations of single- or pooled donor […] cell supernatants as summarized in Table 1.
The supernatants were obtained from single- or pooled donor CD4^IL-10 cells activated for 72 hours with a combination of CD3 and CD28 antibodies as described previously. (Andolfi et al. 2012, Mol. Therapy Vol. 20, 1778-1790, Locafaro et al. Mol Ther 2017, 25, 2254) In some cases (FIGS. 35C and 35D), the monocytes were incubated with LPS in combination with the NLPR3 inflammasome activator nigericin (“NIG”) which was added during the last 30 minutes of the LPS activation.

SMILES	effect of anti-IL-10 receptor antibody on the inhibition of IL-1β production
CC(C)(O)c1coc(S(=O)(=O)NC(=O)Nc2c3c(cc4c2CCC4)CCC3)c1 [MCC950]	no effect
COC(=O)C[C@H](NC(=O)[C@H](C)NC(=O)[C@@H](NC(=O)[C@H](Cc1ccc(O)cc1)NC(=O)OCc1ccccc1)C(C)C)C(=O)CF [Z-YVADfmk]	no effect
